From patent US7101906B2, “2,3,4-substituted cyclopentanones as therapeutic agents” (Allergan, Inc., priority 2004, dated 2006)

What was measured:
hEP4/Gqs5 = target: T1, hEP4/Gqs5 (Homo sapiens, UniProt P35408); assay: FLIPR calcium signal, hEP4/Gqs5; format: cell-based; details: HEK-293(EBNA) cells, read-out: Functional EC50 (nM) HEP4
T1 construct: expressed in transfected cells
Method: (§1) HEK-293(EBNA) cells, stably expressing one type or subtype of recombinant human prostaglandin receptors (prostaglandin receptors expressed: hDP/Gqs5; hEP1; hEP2/Gqs5; hEP3A/Gqi5; hEP4/Gqs5; hFP; hIP; hTP), were cultured in 100 mm culture dishes in high-glucose DMEM medium containing 10% fetal bovine serum, 2 mM 1-glutamine, 250 μg/ml geneticin (G418) and 200 μg/ml hygromycin B as selection markers, and 100 units/ml penicillin G, 100 μg/ml streptomycin and 0.25 μg/ml amphotericin B.
(§2) Cells were seeded at a density of 5×10^4 cells per well in Biocoat® Poly-D-lysine-coated black-wall, clear-bottom 96-well plates (Becton-Dickinson) and allowed to attach overnight in an incubator at 37° C. Cells were then washed two times with HBSS-HEPES buffer (Hanks Balanced Salt Solution without bicarbonate and phenol red, 20 mM HEPES, pH 7.4) using a Denley Cellwash plate washer (Labsystems). After 45 minutes of dye-loading in the dark, using the calcium-sensitive dye Fluo-4 AM at a final concentration of 2 μM, plates were washed four times with HBSS-HEPES buffer to remove excess dye leaving 100 μl in each well. Plates were re-equilibrated to 37° C. for a few minutes.
(§3) Cells were excited with an Argon laser at 488 nm, and emission was measured through a 510–570 nm bandwidth emission filter (FLIPR™, Molecular Devices, Sunnyvale, Calif.). Drug solution was added in a 50 μl volume to each well to give the desired final concentration. The peak increase in fluorescence intensity was recorded for each well. On each plate, four wells each served as negative (HBSS-HEPES buffer) and positive controls (standard agonists: BW245C (hDP); PGE2 (hEP1; hEP2/Gqs5; hEP3A/Gqi5; hEP4/Gqs5); PGF2α (hFP); carbacyclin (hIP); U-46619 (hTP), depending on receptor). The peak fluorescence change in each drug-containing well was then expressed relative to the controls.
(§4) Compounds were tested in a high-throughput (HTS) or concentration-response (CoRe) format. In the HTS format, forty-four compounds per plate were examined in duplicates at a concentration of 10^−5 M. To generate concentration-response curves, four compounds per plate were tested in duplicates in a concentration range between 10^−5 and 10^−11 M. The duplicate values were averaged. In either, HTS or CoRe format each compound was tested on at least 3 separate plates using cells from different passages to give an n≧3.

HEP4 = target: T2, HEP4 (Homo sapiens, UniProt P35408); assay: Radioligand binding, EP4 receptor; details: competition vs [3H]PGE2 5 nM, HEK-293 cell membranes
T2 construct: expressed in transfected cells; membrane fraction
Method: (§5) HEK-293 cells stably expressing the human or feline FP receptor, or EP1, EP2, or EP4 receptors were washed with TME buffer, scraped from the bottom of the flasks, and homogenized for 30 sec using a Brinkman PT 10/35 polytron. TME buffer was added to achieve a final 40 ml volume in the centrifuge tubes (the composition of TME is 100 mM TRIS base, 20 mM MgCl2, […]; 10N HCl is added to achieve a pH of 7.4).
(§6) The cell homogenate was centrifuged at 19000 r.p.m. for 20 min at 4° C. using a Beckman Ti-60 rotor. The resultant pellet was resuspended in TME buffer to give a final 1 mg/ml protein concentration, as determined by Biorad assay. Radioligand binding competition assays vs. [^3H-]17-phenyl PGF2α (5 nM) were performed in a 100 μl volume for 60 min. Binding reactions were started by adding plasma membrane fraction. The reaction was terminated by the addition of 4 ml ice-cold TRIS-HCl buffer and rapid filtration through glass fiber GF/B filters using a Brandel cell harvester. The filters were washed 3 times with ice-cold buffer and oven dried for one hour. Non-specific binding was determined with 10 uM unlabeled 17-phenyl PGF2α.
[^3H-] PGE2 (5 nM; specific activity 180 Ci mmol) was used as the radioligand for EP receptors. Binding studies employing EP1, EP2, EP3, EP4 were performed in duplicate in at least three separate experiments. A 200 μl assay volume was used. Incubations were for 60 min at 25° C. and were terminated by the addition of 4 ml of ice-cold 50 mM TRIS-HCl, followed by rapid filtration through Whatman GF/B filters and three additional 4 ml washes in a cell harvester (Brandel). Non-specific binding determined with 10^−5M of unlabeled PGE2.

hEP3A/Gqi5 = target: T3, hEP3A/Gqi5 (Homo sapiens, UniProt P43115); assay: FLIPR calcium signal, hEP3A/Gqi5; format: cell-based; details: HEK-293(EBNA) cells, read-out: Functional EC50 (nM) HEP3A
T3 construct: expressed in transfected cells
T3 sequence (P43115 1-390): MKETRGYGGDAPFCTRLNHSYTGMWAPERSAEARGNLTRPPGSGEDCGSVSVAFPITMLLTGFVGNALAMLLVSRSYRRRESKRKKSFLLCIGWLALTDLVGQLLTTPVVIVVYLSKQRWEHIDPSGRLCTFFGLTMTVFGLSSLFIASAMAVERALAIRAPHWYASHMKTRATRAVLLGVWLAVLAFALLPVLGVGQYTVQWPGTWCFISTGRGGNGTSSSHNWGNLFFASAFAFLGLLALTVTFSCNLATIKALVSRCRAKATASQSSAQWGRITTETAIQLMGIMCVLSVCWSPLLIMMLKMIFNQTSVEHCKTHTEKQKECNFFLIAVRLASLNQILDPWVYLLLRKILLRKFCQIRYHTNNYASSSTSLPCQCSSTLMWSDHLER
Method: as §1, §2, §3, §4

HEP3D = target: T4, HEP3D (Homo sapiens, UniProt P43115); assay: Radioligand binding, EP3 receptor; details: competition vs [3H]PGE2 5 nM
T4 sequence (P43115 1-374 isoform P43115-4): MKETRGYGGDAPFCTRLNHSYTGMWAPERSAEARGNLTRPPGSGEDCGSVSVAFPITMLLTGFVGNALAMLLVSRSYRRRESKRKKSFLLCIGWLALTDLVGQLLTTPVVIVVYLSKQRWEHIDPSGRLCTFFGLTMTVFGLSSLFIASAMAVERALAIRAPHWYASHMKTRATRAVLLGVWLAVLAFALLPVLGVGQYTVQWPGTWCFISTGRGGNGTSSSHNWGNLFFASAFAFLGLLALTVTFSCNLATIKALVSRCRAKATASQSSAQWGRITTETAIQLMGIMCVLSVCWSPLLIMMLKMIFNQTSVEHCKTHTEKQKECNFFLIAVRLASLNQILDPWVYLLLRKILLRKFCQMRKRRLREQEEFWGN
Method: as §5, §6
(§7) [^3H-] PGE2 (5 nM; specific activity 180 Ci mmol) was used as the radioligand for EP receptors. […] Non-specific binding determined with 10^−5M of unlabeled PGE2.

hTP = target: T5, hTP (Homo sapiens, UniProt P21731); assay: FLIPR calcium signal, hTP; format: cell-based; details: HEK-293(EBNA) cells, read-out: Functional EC50 (nM) HTP
T5 construct: expressed in transfected cells
T5 sequence (P21731 1-343): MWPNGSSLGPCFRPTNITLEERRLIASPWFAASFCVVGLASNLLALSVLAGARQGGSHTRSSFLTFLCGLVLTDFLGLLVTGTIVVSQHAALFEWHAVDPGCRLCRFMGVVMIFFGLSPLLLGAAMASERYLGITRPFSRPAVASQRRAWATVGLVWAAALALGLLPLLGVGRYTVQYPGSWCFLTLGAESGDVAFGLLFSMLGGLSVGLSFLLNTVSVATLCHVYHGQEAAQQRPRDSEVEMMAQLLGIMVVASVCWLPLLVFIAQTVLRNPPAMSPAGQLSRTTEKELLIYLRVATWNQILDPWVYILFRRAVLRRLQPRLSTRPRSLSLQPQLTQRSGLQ
Method: as §1, §2, §3, §4

hEP1 = target: T6, hEP1 (Homo sapiens, UniProt P34995); assay: FLIPR calcium signal, hEP1; format: cell-based; details: HEK-293(EBNA) cells, read-out: Functional EC50 (nM) HEP1
T6 construct: expressed in transfected cells
T6 sequence (P34995 1-402): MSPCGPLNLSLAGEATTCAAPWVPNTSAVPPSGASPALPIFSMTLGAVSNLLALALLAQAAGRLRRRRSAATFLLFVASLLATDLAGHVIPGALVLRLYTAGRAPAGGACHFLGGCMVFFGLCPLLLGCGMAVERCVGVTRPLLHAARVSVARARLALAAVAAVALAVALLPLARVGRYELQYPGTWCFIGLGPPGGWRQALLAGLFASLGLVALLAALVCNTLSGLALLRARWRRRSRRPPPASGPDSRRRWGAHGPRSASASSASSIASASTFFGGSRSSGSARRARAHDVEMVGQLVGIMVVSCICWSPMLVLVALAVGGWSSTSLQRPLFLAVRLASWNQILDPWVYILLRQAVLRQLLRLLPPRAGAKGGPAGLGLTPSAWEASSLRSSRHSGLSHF
Method: as §1, §2, §3, §4

hEP2/Gqs5 = target: T7, hEP2/Gqs5 (Homo sapiens, UniProt P43116); assay: FLIPR calcium signal, hEP2/Gqs5; format: cell-based; details: HEK-293(EBNA) cells, read-out: Functional EC50 (nM) HEP2
T7 construct: expressed in transfected cells
Method: as §1, §2, §3
Compounds were tested in a high-throughput (HTS) or concentration-response (CoRe) format. […]

HEP2 = target: T8, HEP2 (Homo sapiens, UniProt P43116); assay: Radioligand binding, EP2 receptor; details: competition vs [3H]PGE2 5 nM, HEK-293 cell membranes
T8 construct: expressed in transfected cells; membrane fraction
Method: as §5, §6, §7

T7 sequence (P43116 whole entry): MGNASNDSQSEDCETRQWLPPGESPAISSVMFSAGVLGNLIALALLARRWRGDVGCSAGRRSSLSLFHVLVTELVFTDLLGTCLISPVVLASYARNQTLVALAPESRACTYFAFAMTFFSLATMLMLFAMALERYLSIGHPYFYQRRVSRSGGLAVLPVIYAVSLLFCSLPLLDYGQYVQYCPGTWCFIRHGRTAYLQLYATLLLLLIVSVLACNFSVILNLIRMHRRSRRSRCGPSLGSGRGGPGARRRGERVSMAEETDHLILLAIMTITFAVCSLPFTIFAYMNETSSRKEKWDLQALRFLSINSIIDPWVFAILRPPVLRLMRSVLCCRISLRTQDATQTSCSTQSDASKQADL
T2 sequence (P35408 whole entry): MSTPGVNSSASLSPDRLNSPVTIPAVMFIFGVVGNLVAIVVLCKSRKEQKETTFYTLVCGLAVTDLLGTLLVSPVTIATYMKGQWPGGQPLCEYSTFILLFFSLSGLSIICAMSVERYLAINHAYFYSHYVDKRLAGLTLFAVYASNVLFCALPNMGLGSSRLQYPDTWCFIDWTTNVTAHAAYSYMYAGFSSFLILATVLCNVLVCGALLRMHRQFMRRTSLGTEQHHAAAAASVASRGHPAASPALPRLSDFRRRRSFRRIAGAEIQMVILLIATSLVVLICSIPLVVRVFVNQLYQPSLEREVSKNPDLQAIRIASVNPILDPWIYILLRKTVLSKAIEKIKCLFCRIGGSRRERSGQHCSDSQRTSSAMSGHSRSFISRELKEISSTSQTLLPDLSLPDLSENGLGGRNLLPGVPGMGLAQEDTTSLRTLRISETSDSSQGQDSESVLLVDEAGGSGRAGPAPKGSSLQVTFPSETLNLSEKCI
T1 sequence (P35408 whole entry): as above
T8 sequence (P43116 whole entry): as the sequence (P43116 whole entry) above

EC50 (hEP4/Gqs5) [nM]	IC50 (HEP4) [nM]	Compound	further results
708	2100	CC[C@@H]1CC(=O)[C@H](C/C=C\CCCC(=O)O)[C@H]1/C=C/C(O)CCc1sc2ccccc2c1Cl (some centres unmarked)	
> 10000	> 10000	CC(C)[C@@H]1CC(=O)[C@H](C/C=C\CCCC(=O)O)[C@H]1/C=C/C(O)CCc1sc2ccccc2c1Cl (some centres unmarked)	
> 10000	> 10000	COC(=O)CCC/C=C\C[C@H]1C(=O)C[C@@H](C)[C@@H]1/C=C/C(O)CCc1sc2ccccc2c1Cl (some centres unmarked)	
25	110	O=C(O)CCC/C=C\C[C@H]1C(=O)CC[C@@H]1/C=C/C(O)CCc1sc2ccccc2c1Cl (some centres unmarked) [drawing 41]	EC50 (hEP3A/Gqi5): > 10000 nM; IC50 (HEP3D): 3700 nM; EC50 (hTP): > 10000 nM
> 10000		COC(=O)CCC/C=C\C[C@H]1C(=O)C[C@@H](CO)[C@@H]1/C=C/C(O)Cc1cc2ccccc2s1 (some centres unmarked) [drawing 35]	EC50 (hEP1): > 10000 nM; EC50 (hEP3A/Gqi5): 9000 nM; EC50 (hEP2/Gqs5): > 10000 nM; EC50 (hTP): > 10000 nM
	> 10000	CC[C@@H]1CC(=O)[C@H](C/C=C\CCCC(=O)OC)[C@H]1/C=C/C(O)CCc1sc2ccccc2c1Cl (some centres unmarked)	
1770		O=C(O)CCC/C=C\C[C@H]1C(=O)C[C@@H](CO)[C@@H]1/C=C/C(O)Cc1cc2ccccc2s1 (single isomer, unassigned) [drawing 37]	EC50 (hEP1): 9 nM; EC50 (hEP3A/Gqi5): 99 nM; EC50 (hEP2/Gqs5): > 10000 nM
153	1800	C[C@@H]1CC(=O)[C@H](C/C=C\CCCC(=O)O)[C@H]1/C=C/C(O)CCc1sc2ccccc2c1Cl (some centres unmarked)	EC50 (hEP1): > 10000 nM; EC50 (hEP3A/Gqi5): > 10000 nM
515		COC(=O)CCC/C=C\C[C@H]1C(=O)CC[C@@H]1/C=C/C(O)CCc1sc2ccccc2c1Cl (some centres unmarked) [drawing 38]	
> 10000		COC(=O)CCC/C=C\C[C@H]1C(=O)C[C@@H](CO)[C@@H]1/C=C/C(O)CCc1sc2ccccc2c1Cl (some centres unmarked) [drawing 30]	
	> 10000	COC(=O)CCC/C=C\C[C@H]1C(=O)C[C@@H](C(C)C)[C@@H]1/C=C/C(O)CCc1sc2ccccc2c1Cl (some centres unmarked)	
156	650	C=C[C@@H]1CC(=O)[C@H](C/C=C\CCCC(=O)O)[C@H]1/C=C/C(O)CCc1sc2ccccc2c1Cl (some centres unmarked)	IC50 (HEP2): > 10000 nM
1700	> 10000	C=C[C@@H]1CC(=O)[C@H](C/C=C\CCCC(=O)OC)[C@H]1/C=C/C(O)CCc1sc2ccccc2c1Cl (some centres unmarked)	
> 10000		COC(=O)CCC/C=C\C[C@H]1C(=O)C[C@@H](CO)[C@@H]1/C=C/C(O)Cc1cc2ccccc2s1 (some centres unmarked) [drawing 34]	EC50 (hEP1): > 10000 nM; EC50 (hTP): > 10000 nM
11	150	O=C(O)CCC/C=C\C[C@H]1C(=O)CC[C@@H]1/C=C/C(O)CCc1sc2ccccc2c1Cl (some centres unmarked) [drawing 40]	IC50 (HEP3D): 6000 nM; IC50 (HEP2): > 10000 nM
862		COC(=O)CCC/C=C\C[C@H]1C(=O)CC[C@@H]1/C=C/C(O)CCc1sc2ccccc2c1Cl (some centres unmarked) [drawing 39]	EC50 (hTP): > 10000 nM
> 10000		O=C(O)CCC/C=C\C[C@H]1C(=O)C[C@@H](CO)[C@@H]1/C=C/C(O)Cc1cc2ccccc2s1 (single isomer, unassigned) [drawing 36]	EC50 (hEP1): > 10000 nM; EC50 (hEP3A/Gqi5): > 10000 nM; EC50 (hEP2/Gqs5): > 10000 nM; EC50 (hTP): > 10000 nM
1240		O=C(O)CCC/C=C\C[C@H]1C(=O)C[C@@H](CO)[C@@H]1/C=C/C(O)CCc1sc2ccccc2c1Cl (some centres unmarked) [drawing 32]	
1790		O=C(O)CCC/C=C\C[C@H]1C(=O)C[C@@H](CO)[C@@H]1/C=C/C(O)CCc1sc2ccccc2c1Cl (some centres unmarked) [drawing 33]	
> 10000		COC(=O)CCC/C=C\C[C@H]1C(=O)C[C@@H](CO)[C@@H]1/C=C/C(O)CCc1sc2ccccc2c1Cl (some centres unmarked) [drawing 31]	
